Assay results published in article PMC10313066, “In-vitro high-throughput library screening—Kinetics and molecular docking studies of potent inhibitors of α-glucosidase” (PLOS ONE, 2023).

Key:
carbonic anhydrase II = molecular target: carbonic anhydrase II; set-up: method as in earlier work; conditions: cited from earlier work
urease = test system: urease; set-up: method as in earlier work; conditions: cited from earlier work
α-glucosidase [1] = molecular target: T1, α-glucosidase (Saccharomyces cerevisiae, UniProt P53341); test: α-glucosidase inhibition assay (96-well, pNPG substrate, 405 nm); assay type: biochemical; conditions: S3 Table; for OD of sample: absorbance at 405 nm; for inhibition at 500 µM (stock): test compound 20 μL of 0.5 mM, read-out: Percentage Inhibition
Experimental: The assay is based on the method given by Pistia-Brueggeman with slight modifications. In a 96-well plate 120 μL of sodium phosphate buffer (pH = 7) was taken and 20 μL of the enzyme (2U/mL) was added. Then 20 μL of test compound (0.5 mM) was added and then incubated for 15 min. at 37 °C. In sequence, substrate pNPG (20 μL, 1mM) was taken in each well, and dissolved in buffer. The reaction mixture was again incubated for 15 min. at 37 °C. The reaction was stopped by the addition of 20 μL of 0.1 mM Na2CO3, so that the final volume reaches 200 μL. The activity of the enzyme was measured spectrophotometrically at 405 nm by measuring the concentration of product formed, using SpectraMax M2 (Molecular Devices CA, USA). Each sample was taken in triplicate and the % inhibition was measured. […]

α-glucosidase [2] = molecular target: T1, α-glucosidase; test: Kinetic studies, Line-weaver Burk plot (type of enzyme inhibition); assay type: biochemical; conditions: Vmax and Km both change with inhibitor concentration
Experimental: The type of enzyme inhibition was determined by using the Line-weaver Burk plot. For this, out of 4 different concentrations of each sample, each concentration is analyzed against 4 different concentrations of substrate ranging from 1 mM to 0.125 mM. The inverse of maximum velocity (1/Vmax), obtained for each concentration, is plotted against the inverse of substrate concentrations (1/[S]) to find out type of enzyme inhibition.

T1 sequence (P53341 whole entry): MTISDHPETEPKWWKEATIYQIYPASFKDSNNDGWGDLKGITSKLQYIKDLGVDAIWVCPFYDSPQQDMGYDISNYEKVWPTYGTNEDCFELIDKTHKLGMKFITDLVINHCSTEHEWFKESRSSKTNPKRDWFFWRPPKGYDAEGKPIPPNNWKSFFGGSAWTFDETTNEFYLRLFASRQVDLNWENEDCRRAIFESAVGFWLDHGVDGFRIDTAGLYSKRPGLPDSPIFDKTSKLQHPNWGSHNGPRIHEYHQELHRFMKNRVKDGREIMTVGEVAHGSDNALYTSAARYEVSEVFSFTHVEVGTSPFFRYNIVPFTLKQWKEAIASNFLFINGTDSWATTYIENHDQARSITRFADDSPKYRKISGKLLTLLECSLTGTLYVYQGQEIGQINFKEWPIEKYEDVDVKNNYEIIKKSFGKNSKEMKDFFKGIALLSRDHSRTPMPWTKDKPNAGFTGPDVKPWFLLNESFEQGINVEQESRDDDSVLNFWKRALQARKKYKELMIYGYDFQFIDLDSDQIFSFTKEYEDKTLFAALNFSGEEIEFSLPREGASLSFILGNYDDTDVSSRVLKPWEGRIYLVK

OD of sample (α-glucosidase [1])	mode (type) of enzyme inhibition (α-glucosidase [2])	inhibition at 500 µM (stock) (α-glucosidase [1])	Compound	IC50 (carbonic anhydrase II)	IC50 (urease)
–	–	–	O=C(C1=C(c2ccccc2)NC(=S)NC1c1cccc(O)c1)c1ccccc1 (stereo not drawn) [(4-(3-hydroxyphenyl)-6-phenyl-2-thioxo-1,2,3,4-tetrahydropyrimidin-5-yl)phenyl)methanone]	98 µM	–
–	–	–	N=C(N)NCCC[C@@H](N)c1nnc(-c2cccs2)o1 [(R)-1-(4-amino-4-(5-(thiophen-2-yl)-1,3,4-oxadiazol-2-yl)butyl)guanidine]	–	47 µM
0.33	un-competitive	90%	Clc1ccc(-c2nnc(-c3ccc[nH]3)o2)c(Cl)c1 [compound 25, 2-(2,4-dichlorophenyl)-5-(1H-pyrrol-2-yl)-1,3,4-oxadiazole]	–	–
0.39	–	85.6%	O=C1Oc2ccccc2C(=O)/C1=C/c1ccc(-c2ccccc2)cc1 [compound 54]	–	–
0.64	–	80.1%	CCCCCCCCCCCCSc1nc2ccccc2n1CC(=O)N/N=C/c1ccc(O)c(OCC)c1 [compound 96]	–	–
0.49	–	81.9%	COc1ccc(S(=O)(=O)N2CCC(c3nnc(SC(C)C(=O)Nc4ccc(C)cc4)n3-c3ccccc3)CC2)cc1 (stereo not drawn) [compound 185]	–	–
0.30	un-competitive	91.2%	CCSc1nc2ccccc2n1CC(=O)N/N=C/c1ccc(O)cc1O [compound 228, (E)-N’-(2,4-dihydroxybenzylidene)-2-(2-(ethylthio)-1H-benzo[d]imidazol-1-yl)acetohydrazide]	–	–

Compound	OD of sample (α-glucosidase [1])	mode (type) of enzyme inhibition (α-glucosidase [2])	inhibition at 500 µM (stock) (α-glucosidase [1])	IC50 (carbonic anhydrase II)	IC50 (urease)
O=[N+]([O-])c1ccc(N/N=C\c2ccc(O)cc2)c([N+](=O)[O-])c1 [compound 5]	0.62	–	–	–	–
